Results: patent US7745571B2, “Peptide inhibitors of IASPP” (Ludwig Institute for Cancer Research, priority 2002, dated 2010)

What was measured:
Bax promoter = assay: Stimulation of the Bax promoter by p53 after incubation with peptides (FIG. 4); type: cell-based; settings: after incubation with peptide
Protocol: FIG. 4 illustrates the stimulation of the Bax promoter by p53 after incubation with various peptides, in particular DGPEETD (SEQ ID NO: 2);
For transcriptional assay, 5×10^5 Saos-2 cells were plated 24 hr prior to transfection in 6 cm dishes. Various combinations of plasmid DNA were transfected using the following amounts. All transfection assays contain 1 μg of reporter plasmid. 50 ng of wild type human p53, 100 ng of plasmid expressing C. elegans p53, 4 μg of ASPP2, or 8 μg of ASPP1, 5 μg of human iASPP or 7.5 μg of Ce-iASPP were used as indicated. After transfection, the cells were lysed in Reporter Lysis Buffer (Promega, Wis., USA) 16-24 hr post-wash and assayed using the Luciferase Assay kit (Promega, Wis., USA). The fold activation of a particular reporter was determined by the activity of the transfected plasmid above the activity of vector alone. The fold increase of p53 transactivation activity by ASPP was obtained by the activity p53 in combination with ASPP divided by the activity of p53 alone on the promoters used in each assay.

[1] = system: p53 transactivation in U2SO; assay: p53 transactivation in tumour cell line after UV damage of DNA in presence of peptide (FIG. 5); type: cell-based, human; settings: U2SO cells after UV damage of DNA
Description: FIG. 5 illustrates the stimulation of p53 transactivation in a human tumour cell line U2SO after UV damage of DNA in the presence of peptide DGPEETD (SEQ ID NO: 2);

## DGPEETD (p53 inhibitor peptide)
Bax promoter
  stimulation of the Bax promoter by p53: stimulation
[1]
  stimulation of p53 transactivation: stimulation
